Data reported in ChEMBL document CHEMBL1201862, “PubChem BioAssay data set” (2004).
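Compound exposure: 48 hours, 5 concentrations, 96-well plates. GI50 is the concentration that inhibits growth by half.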 The source made the active and inactive calls. No stated cut-off is given here; in the data, active = GI50 up to about 1.1 µM and inactive = higher.

Key:
Experiment in all cases: growth of human tumour cells (NCI), 48 h
HCT-116 = tested on: HCT-116
LOX IMVI = tested on: LOX IMVI
MDA-N = tested on: MDA-N
HOP-92 = tested on: HOP-92
HCT-15 = tested on: HCT-15
SF-268 = tested on: SF-268
K562 = tested on: K562
EKVX = tested on: EKVX
DU-145 = tested on: DU-145
OVCAR-3 = tested on: OVCAR-3
SR = tested on: SR
T47D = tested on: T47D
COLO 205 = tested on: COLO 205
SN12C = tested on: SN12C
HT-29 = tested on: HT-29
CCRF-CEM = tested on: CCRF-CEM
PC-3 = tested on: PC-3
SNB-75 = tested on: SNB-75
SK-MEL-5 = tested on: SK-MEL-5
ACHN = tested on: ACHN
HCC 2998 = tested on: HCC 2998
A498 = tested on: A498
HL-60 = tested on: HL-60
UACC-257 = tested on: UACC-257
SK-OV-3 = tested on: SK-OV-3
TK-10 = tested on: TK-10
CAKI-1 = tested on: CAKI-1
UO-31 = tested on: UO-31
SF-295 = tested on: SF-295
OVCAR-4 = tested on: OVCAR-4
OVCAR-5 = tested on: OVCAR-5
Malme-3M = tested on: Malme-3M
SK-MEL-2 = tested on: SK-MEL-2
RPMI-8226 = tested on: RPMI-8226
786-0 = tested on: 786-0
NCI-H460 = tested on: NCI-H460
U-251 = tested on: U-251
NCI-H226 = tested on: NCI-H226
SW-620 = tested on: SW-620
MDA-MB-435 = tested on: MDA-MB-435
MOLT-4 = tested on: MOLT-4
KM12 = tested on: KM12
IGROV-1 = tested on: IGROV-1
RXF 393 = tested on: RXF 393
MDA-MB-231 = tested on: MDA-MB-231
A549 = tested on: A549
BT-549 = tested on: BT-549
OVCAR-8 = tested on: OVCAR-8
SNB-19 = tested on: SNB-19
M14 = tested on: M14
NCI/ADR-RES = tested on: NCI/ADR-RES
UACC-62 = tested on: UACC-62
NCI-H23 = tested on: NCI-H23
HOP-62 = tested on: HOP-62
MCF7 = tested on: MCF7
Hs-578T = tested on: Hs-578T
SK-MEL-28 = tested on: SK-MEL-28
SF-539 = tested on: SF-539
NCI-H522 = tested on: NCI-H522

With `CCOC(=O)[C@@H](NC(=O)OC(C)(C)C)[C@@H](O)C(=O)OCC` the GI50 (HCT-116) was > 100 µM (inactive), the GI50 (LOX IMVI) was > 100 µM (inactive) and the GI50 (MDA-N) was > 100 µM (inactive). The GI50 (HOP-92) was > 100 µM (inactive), the GI50 (HCT-15) was greater than 100 µM and the GI50 (SF-268) was > 100 µM (inactive). The GI50 (K562) was > 100 µM (inactive), the GI50 (EKVX) was > 100 µM (inactive) and the GI50 (DU-145) was > 100 µM (inactive). The GI50 (OVCAR-3) was > 100 µM (inactive), the GI50 (SR) was > 100 µM (inactive) and the GI50 (T47D) was > 100 µM (inactive). For the same compound, the GI50 (COLO 205) was > 100 µM (inactive), the GI50 (SN12C) was > 100 µM (inactive) and the GI50 (HT-29) was > 100 µM (inactive). The GI50 (CCRF-CEM) was > 100 µM (inactive), the GI50 (PC-3) was > 100 µM (inactive) and the GI50 (SNB-75) was > 100 µM (inactive). The GI50 (SK-MEL-5) was > 100 µM (inactive), the GI50 (ACHN) was > 100 µM (inactive) and the GI50 (HCC 2998) was 62.8 µM (inactive). For the same compound, the GI50 (A498) was 69.5 µM (inactive), the GI50 (HL-60) was > 100 µM (inactive) and the GI50 (UACC-257) was > 100 µM (inactive). The GI50 (SK-OV-3) was > 100 µM (inactive), the GI50 (TK-10) was > 100 µM (inactive) and the GI50 (CAKI-1) was > 100 µM (inactive). The GI50 (UO-31) was > 100 µM (inactive), the GI50 (SF-295) was > 100 µM (inactive) and the GI50 (OVCAR-4) was > 100 µM (inactive). The GI50 (OVCAR-5) was > 100 µM (inactive), the GI50 (Malme-3M) was > 100 µM (inactive) and the GI50 (SK-MEL-2) was > 100 µM (inactive). For the same compound, the GI50 (RPMI-8226) was > 100 µM (inactive), the GI50 (786-0) was > 100 µM (inactive) and the GI50 (NCI-H460) was > 100 µM (inactive). For the same compound, the GI50 (U-251) was > 100 µM (inactive), the GI50 (NCI-H226) was > 100 µM (inactive) and the GI50 (SW-620) was > 100 µM (inactive). The GI50 (MDA-MB-435) was > 100 µM (inactive), the GI50 (MOLT-4) was > 100 µM (inactive) and the GI50 (KM12) was > 100 µM (inactive). The GI50 (IGROV-1) was > 100 µM (inactive), the GI50 (RXF 393) was > 100 µM (inactive) and the GI50 (MDA-MB-231) was > 100 µM (inactive). The GI50 (A549) was > 100 µM (inactive), the GI50 (BT-549) was > 100 µM (inactive) and the GI50 (OVCAR-8) was > 100 µM (inactive). For the same compound, the GI50 (SNB-19) was > 100 µM (inactive), the GI50 (M14) was > 100 µM (inactive) and the GI50 (NCI/ADR-RES) was > 100 µM (inactive). For the same compound, the GI50 (UACC-62) was > 100 µM (inactive), the GI50 (NCI-H23) was > 100 µM (inactive) and the GI50 (HOP-62) was > 100 µM (inactive). For the same compound, the GI50 (MCF7) was > 100 µM (inactive), the GI50 (Hs-578T) was > 100 µM (inactive) and the GI50 (SK-MEL-28) was > 100 µM (inactive).
`CC(CC[C@@H](O)C(C)(C)O)C1[C@@H](O)CC2(C)C3CC(O)C4C(C)(C)[C@@H](OC5OC(CO)C(O)C(O)C5O)CC[C@@]45C[C@@]35CC[C@]12C` (some centres undefined) was tested, and the GI50 (HCT-116) was > 10 µM (inactive), the GI50 (MDA-N) was > 10 µM (inactive) and the GI50 (HOP-92) was > 10 µM (inactive). The GI50 (HCT-15) was greater than 10 µM, the GI50 (SF-268) was > 10 µM (inactive) and the GI50 (K562) was > 10 µM (inactive). The GI50 (EKVX) was > 10 µM (inactive), the GI50 (DU-145) was > 10 µM (inactive) and the GI50 (SF-539) was > 10 µM (inactive). The GI50 (OVCAR-3) was > 10 µM (inactive), the GI50 (SR) was > 10 µM (inactive) and the GI50 (T47D) was > 10 µM (inactive). The GI50 (COLO 205) was > 10 µM (inactive), the GI50 (SN12C) was > 10 µM (inactive) and the GI50 (HT-29) was > 10 µM (inactive). The GI50 (CCRF-CEM) was > 10 µM (inactive), the GI50 (PC-3) was > 10 µM (inactive) and the GI50 (NCI-H522) was > 10 µM (inactive). For the same compound, the GI50 (SNB-75) was > 10 µM (inactive), the GI50 (SK-MEL-5) was > 10 µM (inactive) and the GI50 (ACHN) was > 10 µM (inactive). The GI50 (HCC 2998) was > 10 µM (inactive), the GI50 (A498) was > 10 µM (inactive) and the GI50 (HL-60) was > 10 µM (inactive). The GI50 (UACC-257) was > 10 µM (inactive), the GI50 (SK-OV-3) was > 10 µM (inactive) and the GI50 (TK-10) was > 10 µM (inactive). For the same compound, the GI50 (CAKI-1) was > 10 µM (inactive), the GI50 (SF-295) was > 10 µM (inactive) and the GI50 (OVCAR-4) was > 10 µM (inactive). For the same compound, the GI50 (OVCAR-5) was > 10 µM (inactive), the GI50 (Malme-3M) was > 10 µM (inactive) and the GI50 (SK-MEL-2) was > 10 µM (inactive). For the same compound, the GI50 (RPMI-8226) was > 10 µM (inactive), the GI50 (786-0) was > 10 µM (inactive) and the GI50 (NCI-H460) was > 10 µM (inactive). For the same compound, the GI50 (U-251) was > 10 µM (inactive), the GI50 (NCI-H226) was 8.79 µM (inactive) and the GI50 (SW-620) was > 10 µM (inactive). For the same compound, the GI50 (MDA-MB-435) was > 10 µM (inactive), the GI50 (MOLT-4) was > 10 µM (inactive) and the GI50 (KM12) was > 10 µM (inactive). The GI50 (IGROV-1) was > 10 µM (inactive), the GI50 (RXF 393) was > 10 µM (inactive) and the GI50 (MDA-MB-231) was > 10 µM (inactive). The GI50 (A549) was > 10 µM (inactive), the GI50 (BT-549) was > 10 µM (inactive) and the GI50 (OVCAR-8) was > 10 µM (inactive). The GI50 (SNB-19) was > 10 µM (inactive), the GI50 (M14) was > 10 µM (inactive) and the GI50 (NCI/ADR-RES) was > 10 µM (inactive). For the same compound, the GI50 (UACC-62) was > 10 µM (inactive), the GI50 (NCI-H23) was > 10 µM (inactive) and the GI50 (HOP-62) was > 10 µM (inactive). For the same compound, the GI50 (MCF7) was > 10 µM (inactive), the GI50 (Hs-578T) was > 10 µM (inactive) and the GI50 (SK-MEL-28) was > 10 µM (inactive).
